Here are results for 25 molecules from patent publication US20230058623A1, “NOVEL HETEROARYL-TRIAZOLE COMPOUNDS AS PESTICIDES” (Bayer Aktiengesellschaft, priority 2019, published 2023).

Each structure is given as a SMILES string.

What all share (format): in vivo
For assay [1], the system named is green peach aphid (Myzus persicae). Description: Myzus persicae oral test. The conditions noted are these: 120 h, read-out: activity (mortality). The procedure:
Solvent: 100 parts by weight acetone
To produce a suitable preparation of active compound, 1 part by weight of active compound is mixed with the stated amount of solvent, and the concentrate is diluted with water to the desired concentration.
50 μL compound solution is filled in microtiter plates and 150 μL IPL41 insect medium (33%+15% sugar) is added to obtain a total volume of 200 μL per well. Afterwards the plates are sealed with parafilm through which a mixed population of the green peach aphid (Myzus persicae) can suck on the compound preparation.
After 5 days mortality in % is determined. 100% means all aphids have been killed and 0% means none of the aphids have been killed.

Assay [2] has as its system larvae of the banded cucumber beetle (Diabrotica balteata). Put plainly: Diabrotica balteata spray test. The conditions noted are these: 168 h, after 7 days, wheat seeds, read-out: activity (efficacy: seedlings grown); for pest or weed control at 160 µg/disc, 500 g/ha: application rate 500 g/ha (=160 μg/well); for pest or weed control at 32 µg/disc, 100 g/ha: application rate 100 g/ha (=32 μg/well). The procedure: Diabrotica balteata—Spray Test
To produce a suitable preparation of active compound, 1 part by weight of active compound is mixed with the stated amount of solvent, and the concentrate is diluted with water, containing an emulsifier concentration of 1000 ppm, to the desired concentration. Further test concentrations are prepared by dilution with emulsifier containing water.
Soaked wheat seeds (Triticum aestivum) are placed in a multiple well plate filled with agar and some water and are incubated for 1 day to germinate (5 seeds per well). The germinated wheat seeds are sprayed with a test solution containing the desired concentration of the active ingredient. Afterwards each unit is infected with 10-20 larvae of the banded cucumber beetle (Diabrotica balteata).
After 7 days efficacy in % is determined. 100% means all the seedlings have grown up like in the untreated, uninfected control; 0% means none of the seedlings have grown.

In assay [3] the test system is Rhipicephalus (Boophilus) microplus larvae (strain Parkhurst, resistant against synthetic pyrethroids). Description: Rhipicephalus (Boophilus) microplus in-vitro contact test, larval cattle tick. The conditions noted are these: after 48 hours, read-out: activity (efficacy: larvae dead or moribund); for pest or weed control at 1 µg/cm2, 100 g/ha: application rate 1 μg/cm^2 (=100 g/ha); for pest or weed control at 5 µg/cm2, 500 g/ha: application rate 5 μg/cm^2 (=500 g/ha). As for the experimental part:
Rhipicephalus (Boophilus) microplus—In-Vitro Contact Tests Larval Cattle Tick (Strain Parkhurst, Resistant Against Synthetic Pyrethroids)
9 mg compound is solved in 1 ml acetone and diluted with acetone to the desired concentration. 250 μL of the test solution is filled in 25 mL glass test tubes and homogeneously distributed on the inner walls by rotation and tilting on a shaking device (2 h at 30 rpm). With a compound concentration of 900 ppm, an inner surface of 44.7 cm^2 and a homogeneous distribution, a dose of 5 μg/cm^2 is achieved.
After the solvent has evaporated, each test tube is filled with 20-50 cattle tick larvae (Rhipicephalus microplus), closed with a perforated lid and incubated in a horizontal position at 85% relative humidity and 27° C. in an incubator. After 48 hours efficacy is determined. The larvae are patted on the ground of the tubes and negative geotactic behavior is recorded.
An efficacy of 100% means all larvae are dead or moribund; 0% means no larvae are dead or moribund.

Assay [4] relates to fall armyworm larvae (Spodoptera frugiperda). Put plainly: Spodoptera frugiperda spray test. The conditions noted are these: 168 h, application rate 100 g/ha, after 7 days, maize leaf sections. The procedure: Spodoptera frugiperda—Spray Test
To produce a suitable preparation of active compound, 1 part by weight of active compound is mixed with the stated amount of solvents and is diluted with water, containing an emulsifier concentration of 1000 ppm, to the desired concentration. Further test concentrations are prepared by dilution with emulsifier containing water.
Maize (Zea mays) leaf sections are sprayed with a preparation of the active ingredient of the desired concentration. Once dry, the leaf sections are infested with fall armyworm larvae (Spodoptera frugiperda).
After 7 days mortality in % is determined. 100% means all caterpillars have been killed and 0% means none of the caterpillars have been killed.

Regarding `Cc1nc([C@H](C)NC(=O)c2cc(Cl)cc(C(F)(F)F)c2)n(-c2ccc(C(=O)N3CC(O)C3)cn2)n1` [Example I-21], in assay [1], the mortality at 4 ppm came out at 100%.

For `C[C@H](NC(=O)c1cc(Cl)cc(C(F)(F)F)c1)c1ncnn1-c1ccc(C(=O)N2[C@@H](C)CCC[C@@H]2C)cn1` [Example I-39], the pest or weed control at 160 µg/disc, 500 g/ha in assay [2] stood at 100%.

For the molecule `C[C@H](NC(=O)c1cc(C(F)(F)F)cc(C(F)(F)F)c1)c1ncnn1-c1ccc(N2CCOCC2)cn1` [Example I-44, N-[(1S)-1-{1-[5-(morpholin-4-yl)pyridin-2-yl]-1H-1,2,4-triazol-5-yl}ethyl]-3,5-bis(trifluoromethyl)benzamide], in assay [3], the pest or weed control at 1 µg/cm2, 100 g/ha is 100% and the pest or weed control at 5 µg/cm2, 500 g/ha is 100%. This molecule also gave a mortality at 100 g/ha in assay [4] of 100%. In assay [2], the pest or weed control at 32 µg/disc, 100 g/ha is 100%.

Regarding `C[C@H](NC(=O)c1cc(Cl)cc(C(F)(F)F)c1)c1ncnn1-c1ccc(N2CCCCC2=O)cn1` [Example I-57], in assay [1], the mortality at 4 ppm is 90%.

Regarding `CC(NC(=O)c1cc(F)cc(C#N)c1)c1nc(C(F)F)nn1-c1ccc(C(=O)N2CCOCC2)cn1` (centres unmarked) [Example I-60], in assay [2], the pest or weed control at 32 µg/disc, 100 g/ha was 100% and the pest or weed control at 160 µg/disc, 500 g/ha was found to be 100%.

Regarding `C[C@H](NC(=O)c1cc(C(F)(F)F)cc(C(F)(F)F)c1)c1ncnn1-c1ccc(C(=O)NC2CC(C)(C)OC(C)(C)C2)cn1` [Example I-64], in assay [3], the pest or weed control at 1 µg/cm2, 100 g/ha worked out at 90% and the pest or weed control at 5 µg/cm2, 500 g/ha turned out to be 80%. Moreover, the pest or weed control at 32 µg/disc, 100 g/ha in assay [2] was 100%.

Consider `CC1CCN(C(=O)c2ccc(-n3ncnc3[C@H](C)NC(=O)c3cc(C(F)(F)F)cc(C(F)(F)F)c3)nc2)CC1` [Example I-73], for which, in assay [3], the pest or weed control at 1 µg/cm2, 100 g/ha is 100% and the pest or weed control at 5 µg/cm2, 500 g/ha was 100%. In addition, the pest or weed control at 32 µg/disc, 100 g/ha in assay [2] came to 100%.

`Cc1nc([C@H](C)NC(=O)c2cc(C(F)(F)F)cc(C(F)(F)F)c2)n(-c2ccc(C(=O)N3CCC(C)CC3)cn2)n1` [Example I-74]: in assay [3], the pest or weed control at 1 µg/cm2, 100 g/ha came to 90% and the pest or weed control at 5 µg/cm2, 500 g/ha is 90%. Besides, the pest or weed control at 32 µg/disc, 100 g/ha in assay [2] was found to be 100%.

With `CC(NC(=O)c1cc(Br)cc(Br)c1)c1nc(Br)nn1-c1ccc(C(=O)N2CCOCC2)cn1` (centres unmarked) [Example I-85], in assay [3], the pest or weed control at 1 µg/cm2, 100 g/ha was 100% and the pest or weed control at 5 µg/cm2, 500 g/ha turned out to be 100%.

In turn, `C[C@@H]1CN(C(=O)c2ccc(-n3nc(C4CC4)nc3[C@H](C)NC(=O)c3cc(Cl)cc(S(=O)(=O)C4CC4)c3)nc2)C[C@H](C)O1` [Example I-91] displayed a mortality at 100 g/ha in assay [4] of 100%. In addition, the pest or weed control at 32 µg/disc, 100 g/ha in assay [2] turned out to be 100%.

With `C[C@H](NC(=O)c1cc(Cl)cc(S(C)(=O)=O)c1)c1ncnn1-c1ccc(C(=O)N2CCS(=O)(=O)CC2)cn1` [Example I-96], in assay [1], the mortality at 4 ppm came to 100%.

For `CON(C)C(=O)c1cnc(-n2nc(C)nc2[C@H](C)NC(=O)c2cc(C(F)(F)F)cc(C(F)(F)F)c2)s1` [Example I-97], in assay [3], the pest or weed control at 1 µg/cm2, 100 g/ha was determined as 100% and the pest or weed control at 5 µg/cm2, 500 g/ha worked out at 100%. In assay [2], the pest or weed control at 32 µg/disc, 100 g/ha was 100%. In assay [1], the mortality at 4 ppm came out at 100%.

Take `C[C@H](NC(=O)c1cc(Br)cc(Br)c1)c1ncnn1-c1ccc(N2CCOCC2)cn1` [Example I-103]: in assay [3], the pest or weed control at 1 µg/cm2, 100 g/ha is 90% and the pest or weed control at 5 µg/cm2, 500 g/ha came out at 100%. The pest or weed control at 32 µg/disc, 100 g/ha in assay [2] was 100%.

Take `C[C@H](NC(=O)c1cc(Cl)cc(S(=O)(=O)C(F)(F)F)c1)c1ncnn1-c1ccc(N2CCOCC2)cn1` [Example I-105]: in assay [3], the pest or weed control at 1 µg/cm2, 100 g/ha amounted to 100% and the pest or weed control at 5 µg/cm2, 500 g/ha was found to be 100%. This molecule also returned a mortality at 100 g/ha in assay [4] of 83%. In assay [2], the pest or weed control at 32 µg/disc, 100 g/ha was determined as 100%.

`C[C@H](NC(=O)c1cc(C(F)(F)F)cc(C(F)(F)F)c1)c1ncnn1-c1ccc(C(=O)NC2CCOCC2)cn1` [Example I-111]: in assay [3], the pest or weed control at 1 µg/cm2, 100 g/ha is 100% and the pest or weed control at 5 µg/cm2, 500 g/ha was 100%. The mortality at 4 ppm in assay [1] stood at 90%.

For `C[C@H](NC(=O)c1cc(C(F)(F)F)cc(C(F)(F)F)c1)c1ncnn1-c1ccc(C(=O)NC2CCSCC2)cn1` [Example I-113], in assay [3], the pest or weed control at 1 µg/cm2, 100 g/ha is 100% and the pest or weed control at 5 µg/cm2, 500 g/ha amounted to 100%. In addition, in assay [1], the mortality at 4 ppm is 100%.

Consider `C[C@H](NC(=O)c1cc(Cl)cc(S(C)(=O)=O)c1)c1ncnn1-c1ccc(C(=O)N2CCOCC2)cn1` [Example I-119], for which the mortality at 4 ppm in assay [1] came out at 100%.

Take `C[C@H](NC(=O)c1cc(Cl)cc(C(F)(F)F)c1)c1ncnn1-c1ccc(S(=O)(=O)N2CCOCC2)cn1` [Example I-123]: in assay [3], the pest or weed control at 1 µg/cm2, 100 g/ha was 100% and the pest or weed control at 5 µg/cm2, 500 g/ha came out at 100%. Besides, the pest or weed control at 32 µg/disc, 100 g/ha in assay [2] was determined as 80%.

In the case of `C[C@H](NC(=O)c1cc(OC(F)(F)F)cc(C2CC2)c1)c1ncnn1-c1ccc(S(=O)(=O)N2CCOCC2)cn1` [Example I-125], in assay [3], the pest or weed control at 1 µg/cm2, 100 g/ha is 100% and the pest or weed control at 5 µg/cm2, 500 g/ha was 100%. Moreover, in assay [2], the pest or weed control at 32 µg/disc, 100 g/ha came to 100% and the pest or weed control at 160 µg/disc, 500 g/ha amounted to 100%.

On to `C[C@H](NC(=O)c1cc(C(F)(F)F)cc(C(F)(F)F)c1)c1ncnn1-c1ccc(S(=O)(=O)N2CCOCC2)cn1` [Example I-127, N-[(1S)-1-{1-[5-(morpholin-4-ylsulfonyl)pyridin-2-yl]-1H-1,2,4-triazol-5-yl}ethyl]-3,5-bis(trifluoromethyl)benzamide], for which, in assay [3], the pest or weed control at 1 µg/cm2, 100 g/ha turned out to be 100% and the pest or weed control at 5 µg/cm2, 500 g/ha was found to be 100%.

`C[C@H](NC(=O)c1cc(C(F)(F)F)cc(C(F)(F)F)c1)c1ncnn1-c1ccc(N2CCOCC2=O)cn1` [Example I-128, N-[(1S)-1-{1-[5-(3-oxomorpholin-4-yl)pyridin-2-yl]-1H-1,2,4-triazol-5-yl}ethyl]-3,5-bis(trifluoromethyl)benzamide]: in assay [3], the pest or weed control at 1 µg/cm2, 100 g/ha came out at 100% and the pest or weed control at 5 µg/cm2, 500 g/ha amounted to 100%. Besides, the mortality at 4 ppm in assay [1] is 100%.

`Cc1nc([C@H](C)NC(=O)c2cc(OC(F)(F)F)cc(C3CC3)c2)n(-c2ncc(C(=O)N3CCOCC3)s2)n1` [Example I-137] came in with a mortality at 100 g/ha in assay [4] of 100%.

Regarding `C[C@@H]1CN(C(=O)c2cnc(-n3ncnc3[C@H](C)NC(=O)c3cc(OC(F)(F)F)cc(S(C)(=O)=O)c3)cn2)C[C@H](C)O1` [Example I-142], the mortality at 100 g/ha in assay [4] was 100%.

As to `C[C@H](NC(=O)c1cc(C(F)(F)F)cc(C(F)(F)F)c1)c1ncnn1-c1cnc(C(=O)N2CCCC2)cn1` [Example I-144], the mortality at 100 g/ha in assay [4] came to 100%. Further, the pest or weed control at 32 µg/disc, 100 g/ha in assay [2] was 100%.

Consider `C[C@@H]1CN(C(=O)c2cnc(-n3ncnc3[C@H](C)NC(=O)c3cc(C(F)(F)F)cc(C(F)(F)F)c3)nc2)C[C@H](C)O1` [Example I-146], for which the mortality at 100 g/ha in assay [4] was 100%. The pest or weed control at 32 µg/disc, 100 g/ha in assay [2] turned out to be 100%.
